Test results from patent US20240390902A1, “METHODS AND SYSTEMS FOR SORTING BIOLOGICAL PARTICLES” (Newomics Inc., priority 2017, published 2024).
Several values for one entry are separate records, joined by “and”; a condition that tells them apart may be missing. Equal values may be shown once. Read-outs that look alike come from different tables or passages of the source.

Key:
[1] = system: mouse mesenchymal stem cells (mMSCs); settings: 150 μM H2O2; each timepoint including 24 hours after treatment
Procedure: Cellular senescence induction of mouse MSCs. […] At each timepoint, mMSCs were labeled with a senescence detection kit in a 37° C. incubator overnight. The senescence cell ratio was calculated by dividing the SA-β gal^+ cells over the total number of cells counted.

[2] = system: human mesenchymal stem cells (hMSCs); settings: 300 μM H2O2, 3 hours (FIG. 19B)
Procedure: Cell culture and staining. Human mesenchymal stem cells (MSCs) were derived from a person and purchased from Lonza (Lonza, 0000471980). […] Cells were cultured in a humidified incubator (Symphony 5.3A CO2 incubator, VWR, USA) at 37° C. with 5% CO2. MSCs basal medium (PT-3238, Lonza) with MSCGM™ SingleQuots supplement kit (PT-4105, Lonza) was used for hMSC culture, and MesenCult™ Expansion kit (5513, [sequence] Technologies, Canada) was used for mMSC culture. Both media were supplemented with 1% penicillin-streptomycin (15140122, ThermoFisher Scientific, USA) to prevent cell contamination during culture. Basal MSCs were stained with either Hoechst (Hoechst 33342, H3570, ThermoFisher Scientific, USA) for 10 minutes or cell tracker (C2102, CellTracker™ green BODIPY™ dye, ThermoFisher Scientific, USA) for 15 minutes. In all cases, adhesive cells were detached using Trypsin/EDTA (CC3232, Lonza) at 37° C. for 10 minutes. The size of trypsinized cells was measured by the analytical tool provided in the Olympus cellSens Dimension software.

[3] = system: human mesenchymal stem cells (hMSCs)
Procedure: Senescent cell model and staining. hMSCs or mMSCs senescence was induced chemically using hydrogen peroxide or using X-ray radiation. The medium containing hydrogen peroxide (H2O2) was prepared by diluting 30% H2O2 solution (H1009, Sigma, USA) with MSCs culture medium to desired concentrations. For the H2O2 treatment experiments, the MSCs were cultured in the medium containing H2O2 at 37° C. for 3 hours. After that, the MSCs were washed with 1×DPBS 2 times and cultured in the fresh media for a variable number of days before analysis. For X-ray radiation treatment, MSCs were placed on a rotating table and exposed to 1 gray (Gy), 4 Gy, or 6 Gy radiation. After treatment, cells were cultured for a variable number of days before analysis. The senescent cells were identified by the senescence detection kit (K320, BioVision, USA), which targets senescence-associated β-galactosidase (SA-β-gal) activity, following the manufacturer's provided protocol. […] For the experiments using the mixture of basal and H2O2-treated hMSCs, the H2O2-treated hMSCs were stained with cell tracker (C34551, CellTracker™ orange CMRA Dye™ dye, ThermoFisher Scientific, USA), while basal hMSCs were stained with Hoechst for 10 minutes to differentiate two cell populations.
Cellular senescence induction of human MSCs. Hydrogen peroxide (H2O2) was used to induce cellular senescence of human MSCs. We tested three H2O2 concentrations: 100, 200, and 300 μM. Concentrated H2O2 (100×) was prepared and was added to hMSC culture media using a 1 to 100 dilution, after which, hMSCs were cultured in H2O2 contained medium in a 37° C. incubator for three hours. After H2O2 treatment, the H2O2 contained medium was withdrawn and the culture wells were washed with DPBS two times. Fresh culture medium was then added to cells for 1, 4, and 7 days post-culture. hMSCs were detached using Trypsin/EDTA, then labeled with a senescence detection kit in a 37° C. incubator overnight following the manufacturer's recommended protocol (K320, BioVision, USA). The senescence kit targets senescence-associated β-galactosidase (SA-β-gal) activity within cells. The SA-β gal^+ cells and total cells were counted to estimate the senescence cell ratio. […] For the experiment to mix basal hMSCs with H2O2 treated hMSCs, the basal hMSCs followed the same culture protocol, but without H2O2 treatment.

[4] = system: human mesenchymal stem cells (hMSCs); assay: Necrosis of human MSCs (apoptosis kit, annexin V-FITC / SYTOX green); settings: for necrotic cell percentage of hMSCs: 300 μM H2O2 treated
[5] = system: mouse mesenchymal stem cells (mMSCs)
Procedure: Mouse mesenchymal stem cells (MSCs) were purchased from Cyagen (Strain C57BL/6 Mouse Mesenchymal Stem Cells, MUBMX-01001, Cyagen, USA). Cells were cultured in a humidified incubator (Symphony 5.3A CO2 incubator, VWR, USA) at 37° C. with 5% CO2. MSCs basal medium (PT-3238, Lonza) with MSCGM™ SingleQuots supplement kit (PT-4105, Lonza) was used for hMSC culture, and MesenCult™ Expansion kit (5513, [sequence] Technologies, Canada) was used for mMSC culture. Both media were supplemented with 1% penicillin-streptomycin (15140122, ThermoFisher Scientific, USA) to prevent cell contamination during culture. Basal MSCs were stained with either Hoechst (Hoechst 33342, H3570, ThermoFisher Scientific, USA) for 10 minutes or cell tracker (C2102, CellTracker™ green BODIPY™ dye, ThermoFisher Scientific, USA) for 15 minutes. In all cases, adhesive cells were detached using Trypsin/EDTA (CC3232, Lonza) at 37° C. for 10 minutes. The size of trypsinized cells was measured by the analytical tool provided in the Olympus cellSens Dimension software.

[6] = 300 μM H2O2 treated hMSCs, cultured 7 days, stored at 4° C. another 2 days (FIG. 19B)
[7] = 150 μM H2O2 for three hours, after culturing for 1 day

Question: Which “senescence ratio of mMSCs versus cells without H2O2 treatment” value [1] does the source give for OO [H2O2, hydrogen peroxide] here?
Answer: higher

Question: What about the “size of hMSCs” value [2] of the same compound?
Answer: 29.4+/−3.2 μm

Question: What about the “percentage of senescent hMSCs” value ([3]; 300 μM H2O2 for 3 hours, 1 day post-treatment) of the same compound?
Answer: 9.9%

Question: What about the “percentage of senescent hMSCs” value ([3]; 300 μM H2O2 for 3 hours, 3 days post-treatment) of the same compound?
Answer: 16.5%

Question: And the “percentage of senescent hMSCs (senescence ratio)” value ([3]; 300 μM H2O2 for 3 hours, 7 days post-treatment)?
Answer: ~50% and 57.7%

Question: What about the “percentage of senescent cells” value [3, 6] of the same compound?
Answer: 51.7%

Question: What about the “percentage of necrotic cells” value [4, 6] of the same compound?
Answer: 37%

Question: What about the “percentage of viable cells” value [4, 6] of the same compound?
Answer: 11.3%

Question: And the “necrotic cell percentage of hMSCs” value ([4]; before storage at 4° C.)?
Answer: 25%

Question: And the “necrotic cell percentage of hMSCs” value ([4]; stored at 4° C. refrigerator for 2 days)?
Answer: 56%

Question: And the “increase of size compared to basal mMSCs” value [5, 7]?
Answer: 3.5 μm

Question: What about the “size of mMSCs” value [5, 7] of the same compound?
Answer: 16.8+/−2.5 μm

Question: And the “purity of cells >15 μm” value ([5]; H2O2 (150 μM) treated mMSCs, sample input)?
Answer: 43.5%
